Results reported in patent US11602534B2, “Pyrimidine derivative kinase inhibitors” (HEFEI INSTITUTES OF PHYSICAL SCIENCE, CHINESE ACADEMY OF …, priority 2017, dated 2023).
Where a name gives a salt, the structure may show the parent alone.

Assays:
[1] = tested on: TEL-VEGFR2-BaF3; test: Proliferation of TEL-VEGFR2-BaF3 cells, CCK8 cell viability assay; type: cell-based; conditions: Mus musculus, 72 hours, stably expressing VEGFR2 kinase
Procedure, shortened: (§1)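 Human kinase-region sequences were PCR-amplified, fused behind N-terminal TEL in MSCV-Puro and stably introduced into mouse BaF3 by retrovirus. IL-3 was then removed to give kinase-dependent lines. Compound effects on these and on parental BaF3 are scored as GI50 (μM) via CCK8 viable-cell quantification.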

[2] = tested on: BaF3; test: Proliferation of BaF3 cells, CCK8 cell viability assay; type: cell-based; conditions: Mus musculus, 72 hours
Procedure, shortened: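 Parental murine BaF3 and IL-3-independent BaF3 transformants driven by TEL–cKIT, TEL–PDGFRα or TEL–PDGFRβ, with human kinase domains stably transduced by retrovirus. CCK8 dehydrogenase read-out gives GI50 (μM).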

[3] = tested on: Tel-cKit-BaF3; test: Proliferation of Tel-cKit-BaF3 cells, CCK8 cell viability assay; type: cell-based, mouse; conditions: for GI50: Mus musculus, 72 hours, CCK8, stably expressing cKIT kinase
Procedure, shortened: as §1

[4] = tested on: Tel-RET-BaF3; test: Proliferation of Tel-RET-BaF3 cells, CCK8 cell viability assay; type: cell-based; conditions: Mus musculus, 72 hours, stably expressing RET kinase
Excerpt: In this example the following cells were used: […] (purchased from ATCC), mouse P210-BaF3 (stably expressing BCR-ABL mutant activated kinase), mouse P210/T315I-BaF3 (stably expressing BCR-ABL/T315I mutant activated kinase), mouse FLT3-ITD-BaF3 (stably expressing FLT3/ITD mutant activated kinase), mouse TEL-FLT3-BaF3 (stably expressing FLT3 kinase), mouse TEL-cKIT-BaF3 (stably expressing cKIT kinase), mouse BaF3-tel/T670I-cKit (stably expressing cKIT/T670I mutant activated kinase), mouse Tel-VEGFR2-BaF3 (stably expressing VEGFR2 kinase), mouse Tel-PDGFRα-BaF3 (stably expressing PDGFRα kinase), mouse Tel-PDGFRβ-BaF3 (stably expressing PDGFRβ kinase), mouse Tel-RET-BaF3 (stably expressing RET kinase). The above cell lines were all constructed by our laboratory according to the following method: the kinase region sequences of human P210, P210/T315I, FLT3/ITD, FLT3, cKIT, cKIT/T670I, VEGFR2, PDGFRα, PDGFRβ, RET were respectively amplified by PCR, and inserted into MSCV-Puro vectors having N-terminal TEL or TPR fragments (Clontech). The vectors were stably transfected into mouse BaF3 cells by means of retrovirus, and the growth factor IL-3 were removed, eventually obtaining cell lines that depend on transferred protein P210, P210/T315I, FLT3/ITD, FLT3, cKIT, cKIT/T670I, VEGFR2, PDGFRα, PDGFRβ, or RET.
GI50 (unit: μM) was calculated by quantifying the number of living cells based on quantitative measurement of reductive dehydrogenase in living cells with CCK8 cell viability assay kit (Bestbio, China).

[5] = tested on: TEL-PDGFRβ-BaF3; test: Proliferation of TEL-PDGFRβ-BaF3 cells, CCK8 cell viability assay; type: cell-based; conditions: Mus musculus, 72 hours, stably expressing PDGFRβ kinase
Procedure, shortened: as §1

[6] = tested on: Tel-cKit/T670I-BaF3; test: Proliferation of Tel-cKit/T670I-BaF3 cells, CCK8 cell viability assay; type: cell-based; conditions: Mus musculus, 72 hours, stably expressing cKIT/T670I
Procedure, shortened: as §1

[7] = tested on: Tel-FLT3-BaF3; test: Proliferation of Tel-FLT3-BaF3 cells, CCK8 cell viability assay; type: cell-based; conditions: Mus musculus, 72 hours, stably expressing FLT3 kinase
Procedure, shortened: as §1

[8] = tested on: TEL-PDGFRα-BaF3; test: Proliferation of TEL-PDGFRα-BaF3 cells, CCK8 cell viability assay; type: cell-based; conditions: Mus musculus, 72 hours, stably expressing PDGFRα kinase
Procedure, shortened: as §1

[9] = tested on: FLT3-ITD-BaF3; test: Proliferation of FLT3-ITD-BaF3 cells, CCK8 cell viability assay; type: cell-based; conditions: Mus musculus, 72 hours, stably expressing FLT3/ITD
Procedure, shortened: as §1

[10] = tested on: P210-BaF3; test: Proliferation of P210-BaF3 cells, CCK8 cell viability assay; type: cell-based; conditions: Mus musculus, 72 hours, stably expressing BCR-ABL mutant activated kinase
Procedure, shortened: as §1

Cc1ccc(NC(=O)Nc2ccc(Oc3cc(N4CCNCC4C)ncn3)cc2)cc1C(F)(F)F (stereo not shown) [Example 104, 1-{4-[6-(2-methyl-piperazin-1-yl)-pyrimidin-4-yloxy]-phenyl}-3-(4-methyl-3-trifluoromethyl-phenyl)-urea]
GI50 [1]: 2890 nM | GI50 [2]: 8480 nM | GI50 [3]: 1800 nM | GI50 [4]: 3620 nM | GI50 [5]: 173 nM | GI50 [6]: 5130 nM | GI50 [7]: 670 nM | GI50 [8]: 14 nM | GI50 [9]: 290 nM

Cc1ccc(NC(=O)Nc2ccc(Oc3cc(N4CCNC[C@H]4C)ncn3)cc2)cc1C(F)(F)F [Example 105, (R)-1-(4-methyl-3-(trifluoromethyl)phenyl)-3-(4-((6-(2-methylpiperazin-1-yl)pyrimidin-4-yl)oxy)phenyl)urea]
GI50 [1]: 323 nM | GI50 [2]: 9670 nM | GI50 [3]: 990 nM | GI50 [4]: 2750 nM | GI50 [5]: 195 nM | GI50 [6]: 2160 nM | GI50 [7]: 200 nM | GI50 [8]: 14 nM | GI50 [9]: 86 nM

Cc1ccc(NC(=O)Nc2ccc(Oc3cc(N4CCNC[C@@H]4C)ncn3)cc2)cc1C(F)(F)F [Example 107, (S)-1-(4-methyl-3-(trifluoromethyl)phenyl)-3-(4-((6-(2-methylpiperazin-1-yl)pyrimidin-4-yl)oxy)phenyl)urea]
GI50 [1]: 508 nM | GI50 [2]: 8120 nM | GI50 [3]: 2850 nM | GI50 [4]: 1980 nM | GI50 [5]: 117 nM | GI50 [6]: 940 nM | GI50 [7]: 340 nM | GI50 [8]: 34 nM | GI50 [9]: 150 nM

CN1CCN(Cc2ccc(NC(=O)Nc3ccc(Oc4cc(NCCN)ncn4)cc3)cc2C(F)(F)F)CC1 [Example 108, 1-{4-[6-(2-amino-ethylamino)-pyrimidin-4-yloxy]-phenyl}-3-[4-(4-methyl-piperazin-1-ylmethyl)-3-trifluoromethyl-phenyl]-urea]
GI50 [1]: 98 nM | GI50 [2]: > 10000 nM | GI50 [3]: 970 nM | GI50 [4]: 3880 nM | GI50 [5]: 324 nM | GI50 [6]: 7820 nM | GI50 [7]: 11 nM | GI50 [8]: 16 nM | GI50 [9]: 9 nM

CCN1CCN(Cc2ccc(NC(=O)Nc3ccc(Oc4cc(NCCN)ncn4)cc3)cc2C(F)(F)F)CC1 [Example 109, 1-{4-[6-(2-amino-ethylamino)-pyrimidin-4-yloxy]-phenyl}-3-[4-(4-ethyl-piperazin-1-ylmethyl)-3-trifluoromethyl-phenyl]-urea]
GI50 [1]: 145 nM | GI50 [2]: 3540 nM | GI50 [3]: 999 nM | GI50 [4]: 460 nM | GI50 [5]: 392 nM | GI50 [6]: 3360 nM | GI50 [7]: 11 nM | GI50 [8]: 13 nM | GI50 [9]: 7 nM

Cc1ccc(NC(=O)Nc2ccc(Oc3cc(N4CCN(C(=O)OC(C)(C)C)C[C@H]4CO)ncn3)cc2)cc1C(F)(F)F [Example 110, (S)-3-(hydroxymethyl)-4-(6-(4-(3-(4-methyl-3-(trifluoromethyl)phenyl)ureido)phenoxy)pyrimidin-4-yl)piperazin-1-tert-butyl Formate]
GI50 [1]: 4620 nM | GI50 [2]: > 10000 nM | GI50 [3]: 2250 nM | GI50 [4]: 6210 nM | GI50 [5]: 270 nM | GI50 [6]: 5290 nM | GI50 [7]: 4860 nM | GI50 [8]: 60 nM | GI50 [9]: 182 nM

CC[C@@H]1CN(C(=O)OC(C)(C)C)CCN1c1cc(Oc2ccc(NC(=O)Nc3ccc(C)c(C(F)(F)F)c3)cc2)ncn1 [Example 111, (R)-3-ethyl-4-(6-(4-(3-(4-methyl-3-(trifluoromethyl)phenyl)ureido)phenoxy)pyrimidin-4-yl)piperazin-1-tert-butyl formate]
GI50 [1]: 1740 nM | GI50 [2]: > 10000 nM | GI50 [3]: 6050 nM | GI50 [4]: > 10000 nM | GI50 [5]: 690 nM | GI50 [6]: 8600 nM | GI50 [7]: 6160 nM | GI50 [8]: 190 nM | GI50 [9]: 141 nM

Cc1ccc(NC(=O)Nc2ccc(Oc3cc(N[C@H](C)CNC(=O)OC(C)(C)C)ncn3)cc2)cc1C(F)(F)F [Example 112, (R)-(2-((6-(4-(3-(4-methyl-3-(trifluoromethyl)phenyl)ureido)phenoxy)pyrimidin-4-yl)amino)propyl)aminotert-butyl Formate]
GI50 [1]: 390 nM | GI50 [2]: 4120 nM | GI50 [3]: 1070 nM | GI50 [4]: 3820 nM | GI50 [5]: 51 nM | GI50 [6]: 886 nM | GI50 [7]: 599 nM | GI50 [8]: 23 nM | GI50 [9]: 58 nM

Cc1ccc(NC(=O)Nc2ccc(Oc3cc(N[C@H](C)CN)ncn3)cc2)cc1C(F)(F)F [Example 113, (R)-1-(4-((6-((1-aminoprop-2-yl)amino)pyrimidin-4-yl)oxy)phenyl)-3-(4-methyl-3-(trifluoromethyl)phenyl)urea]
GI50 [1]: 1260 nM | GI50 [2]: > 10000 nM | GI50 [3]: 3220 nM | GI50 [4]: > 10000 nM | GI50 [5]: 170 nM | GI50 [6]: 8540 nM | GI50 [7]: 638 nM | GI50 [8]: 86 nM | GI50 [9]: 259 nM

Cc1ccc(NC(=O)Nc2ccc(Oc3cc(N4CCOC[C@H]4C)ncn3)cc2)cc1C(F)(F)F [Example 114, (R)-1-(4-methyl-3-(trifluoromethyl)phenyl)-3-(4-((6-(3-methylmorpholino)pyrimidin-4-yl)oxy)phenyl)urea]
GI50 [1]: 1330 nM | GI50 [2]: 6050 nM | GI50 [3]: 287 nM | GI50 [4]: 3830 nM | GI50 [5]: 30 nM | GI50 [6]: 1010 nM | GI50 [7]: 1090 nM | GI50 [8]: 5 nM | GI50 [9]: 37 nM

Cc1ccc(NC(=O)Nc2ccc(Oc3cc(N4CCN(C(=O)CC(C)(C)C)C[C@H]4C)ncn3)cc2)cc1C(F)(F)F [Example 115, (R)-1-(4-((6-(4-(3,3-dimethylbutyryl)-2-methylpiperazin-1-yl)pyrimidin-4-yl)oxy)phenyl)-3-(4-methyl-3-(trifluoromethyl)phenyl)urea]
GI50 [1]: 2280 nM | GI50 [2]: 9870 nM | GI50 [3]: 2120 nM | GI50 [4]: 3970 nM | GI50 [5]: 190 nM | GI50 [6]: 4250 nM | GI50 [7]: 2190 nM | GI50 [8]: 52 nM | GI50 [9]: 413 nM

CNC(=O)c1cc(Oc2ccc(NC(=O)Nc3ccc(Cl)c(C(F)(F)F)c3)cc2)ccn1 [Sorafenib, reference compound]
GI50 [2]: 6990 nM | GI50 [10]: 3830 nM | GI50 [3]: 58 nM | inhibition of cKIT (in words) ([3]; summary of Table 2): strongly inhibits | GI50 [4]: 365 nM | GI50 [5]: 35 nM | GI50 [6]: 112 nM | GI50 [7]: 0.9 nM | GI50 [8]: 0.6 nM | GI50 [9]: 0.3 nM
